Test results taken from the OPERA property sets (Mansouri et al. 2018).

Cn1cc([N+](=O)[O-])nc1Cl and Cn1cc([N+](=O)[O-])nc1Br are within 0.2 log units of each other in logP: 0.19 for the first, 0.33 for the second.

Compared with Cc1[nH]cnc1[N+](=O)[O-], O=[N+]([O-])c1nc[nH]c1Cl is higher in logP: 0.23 for the first, 0.78 for the second.

Cn1c([N+](=O)[O-])cnc1Cl and Cn1cnc(Cl)c1[N+](=O)[O-] are within 0.2 log units of each other in logP: 0.62 for the first, 0.69 for the second.

First: Cn1ccnc1[N+](=O)[O-]
Second: COc1c([N+](=O)[O-])ncn1C
The logP of the first is lower: -0.17 for the first, 0.19 for the second.

Compared with Cc1[nH]c(Br)nc1[N+](=O)[O-], Cc1nc([N+](=O)[O-])c(Br)[nH]1 is higher in logP: 0.86 for the first, 1.14 for the second.

COc1nc[nH]c1[N+](=O)[O-] and COc1nc(C)[nH]c1[N+](=O)[O-] are within 0.2 log units of each other in logP: 0.13 for the first, 0.21 for the second.

First: Cn1cnc(Br)c1[N+](=O)[O-]
Second: Cn1cnc([N+](=O)[O-])c1Br
The logP of the first is higher: 0.77 for the first, 0.36 for the second.

Compared with O=[N+]([O-])c1nc[nH]c1Br, Cn1cnc([N+](=O)[O-])c1N is lower in logP: 0.85 for the first, -1 for the second.

First: Cn1cnc([N+](=O)[O-])c1
Second: Cn1cncc1[N+](=O)[O-]
The logP of the first is lower: -0.44 for the first, 0.13 for the second.

In the case of Cc1nc(Br)n(C)c1[N+](=O)[O-], the logP is reported as 0.82.
